Assay results reported in patent US9416128B2, “Fused heterocyclic compounds as ion channel modulators” (Gilead Sciences, Inc., priority 2013, dated 2016).

Assays:
[1] = molecular target: wild-type human cardiac sodium channel, hNaV 1.5 (Late INa) (Homo sapiens, UniProt Q14524); test: Late INa screening assay (whole cell patch clamp, QPatch, Tefluthrin-induced late current); format: cell-based; conditions: HEK293, % inhibition (percent block of late INa) at 1 uM; HEK293 hNaV1.5; 10 μM Tefluthrin; read-out: Nav1.5 Late INa 1 uM
Experimental: The cardiac late sodium current (Late INa) and peak sodium current (Peak INa) assays are performed on an automated electrophysiology platform, QPatch 16X or QPatch HT (Sophion Bioscience, Copenhagen, Denmark) using the whole cell patch clamp technique to measure currents through the cell membrane. The assay uses an HEK293 (human embryonic kidney) cell line heterologously expressing the wild-type human cardiac sodium channel, hNaV 1.5, purchased from Millipore (Billerica, Mass.). No beta subunits were coexpressed with the Na channel alpha subunit. Cells are maintained with standard tissue culture procedures and stable channel expression is maintained with 400 μg/mL Geneticin in the culture medium. Experiments are carried out at 23-25° C.
For both the Late INa and Peak INa assays, series resistance compensation is set to 100% and series resistance and whole-cell compensation are performed automatically. Currents are digitized at 25 kHz and low-pass filtered at 5 kHz and stored in the Sophion Bioscience Oracle database (Sophion Bioscience, Copenhagen, Denmark). Analysis is performed using QPatch Assay software and data are compiled in Excel 2010 (Microsoft, Seattle, Wash., U.S.A.).
Compound stocks are routinely made by the Gilead Sample Bank in vials to 10 mM in dimethyl sulfoxide (DMSO). In some cases, when compounds are not soluble in DMSO, they are made in 100% ethanol. Stocks are sonicated as necessary. The extracellular solution for screening Late INa is composed of: 140 mM NaCl, 4 mM KCl, 1.8 mM CaCl2, 1 mM MgCl2, 10 mM HEPES and 10 mM Dextrose with pH adjusted to 7.35 using NaOH. The intracellular solution contains: 105 mM CsF, 20 mM CsCl, 10 NaF, 2 mM EGTA, 10 mM HEPES and 10 mM Dextrose with pH adjusted to 7.35 with CsOH. Compounds are diluted in extracellular solution using a MicroLab Nimbus (Hamilton Robotics, Reno, Nev.) to between 0.3 and 3 μM in glass vials and transferred to glass well plates before robotic addition to the cells. The 0 mM Na extracellular solution (0Na-ECF) used at the end of each experiment for the Late INa and Peak INa assays to measure baseline current contains: 140 Choline-Cl; 4 mM KCl, 1.8 mM CaCl2; 1 mM MgCl2; 10 mM HEPES and 10 mM Dextrose with pH was adjusted to 7.35 with CsOH.
For the Late INa assay, sodium channels are activated every 10 seconds (0.1 Hz) by depolarizing the cell membrane to −20 mV for 250 milliseconds (ms) from a holding potential of −120 mV.
Compounds were tested to determine their activity in blocking the late sodium current. Late INa was generated by adding 10 μM Tefluthrin (pyrethroid) to the extracellular solution. For the purposes of the screening, Late INa is defined as the mean current between 240 ms and 265 ms during the voltage step to −20 mV. After establishing the whole cell recording configuration, Late INa activator is added to each well 4 times over a 15 minute period so that the late component of the Na current reaches a stable value. Compounds were then added (typically at 0.3 or 1 μM), in the presence of the Late INa activator, with 3 additions over the course of 5 minutes. Measurements were made at the end of exposure to the third compound addition and values were normalized to the current level when all Na^+ was removed from the extracellular solution after two additions of 0Na-ECF.
Results are reported as percent block of late INa and results were analyzed by incorporating rundown correction for the Late INa.

hNaV1.2 (SCN2A) = molecular target: T1, hNaV1.2 (SCN2A) (Homo sapiens, UniProt Q99250); test: Use-dependent inhibition of the CNS NaV1.2 sodium channel; format: cell-based; conditions: HEK-293, % inhibition, 25 Hz; for inhibition at 1 µM: use-dependent block at 1 uM, read-out: Nav1.2 UDB 25 Hz 1 uM; for inhibition at 10 µM: use-dependent block at 10 uM, read-out: Nav1.2 UDB 25 Hz 10 uM
T1 construct: expressed in transfected cells
Experimental: HEK-293 cells stably expressing wild-type (WT) hNaV1.2 (SCN2A NCBI # NM_021007.2, SCN1B NCBI # NM_001037.4, SCN2B NCBI # NM_004588.2) were used to record INa. Cells are maintained with standard tissue culture procedures and stable channel expression is maintained with 800 ug/mL G418 and 3 ug/mL Puromycin in the culture medium. Unless otherwise noted, all reagents are purchased from Sigma-Aldrich (St Louis, Mo., U.S.A.).
Assays measuring Use-Dependent Block (UDB) of NaV1.2 are performed on an automated electrophysiology platform, QPatch 16X or QPatch HT (Sophion Bioscience, Copenhagen, Denmark), using the whole cell patch clamp technique to measure currents through the cell membrane. Series resistance compensation is set to 100% and series resistance and whole-cell compensation are performed automatically. Currents stored in the Sophion Bioscience Oracle database (Sophion Bioscience, Copenhagen, Denmark). Analysis is performed using QPatch Assay software and data are compiled in Excel 2010 (Microsoft, Seattle, Wash., U.S.A.). The internal (pipette) solution consists of (in mM) 105 CsF, 10 NaF, 20 CsCl, 2 EGTA, 10 HEPES, 10 Dextrose with a pH of 7.35 and osmolarity of 300 mOsmol/kg. The external (bath) solution contains in (mM): 145 NaCl, 4 KCl, 1.8 CaCl2, 1 MgCl2, 10 dextrose, 10 HEPES, with a pH of 7.35 and osmolarity of 310 mOsmol/kg. Experiments are carried out at 23-25° C.
Compound stocks are routinely made by the Gilead Sample Bank in vials to 10 mM in dimethyl sulfoxide (DMSO). In some cases, when compounds are not soluble in DMSO, they are made in 100% ethanol. Stocks are sonicated as necessary. […]
Cells are allowed to stabilize for 10 min after establishment of the whole-cell configuration before current is measured. The test compound is applied 2 times at 60 second intervals. After the second compound addition, a 200 second wait period was imposed to allow for equilibration. Leak currents are subtracted by using an online P/4 procedure and all currents are low-pass Bessel filtered at 5 kHz and digitized at […].
Results are presented as mean percentage inhibition.
Use-dependent block of NaV1.2 peak current is measured during pulse number 20 of a voltage pulse train (0 mV, 20 ms, 20 pulses, 25 Hz) from a holding potential of −120 mV.
Currents are normalized to the peak current recorded in response to the first pulse in each frequency train. The voltage protocol for UDB was performed in the absence and presence of compound and percentage inhibition was calculated with respect to the compound free condition.
Data analysis is performed using QPatch Assay Software 4.0, and Excel 2002 (Microsoft, Seattle, Wash., U.S.A.).

T1 sequence (Q99250 whole entry): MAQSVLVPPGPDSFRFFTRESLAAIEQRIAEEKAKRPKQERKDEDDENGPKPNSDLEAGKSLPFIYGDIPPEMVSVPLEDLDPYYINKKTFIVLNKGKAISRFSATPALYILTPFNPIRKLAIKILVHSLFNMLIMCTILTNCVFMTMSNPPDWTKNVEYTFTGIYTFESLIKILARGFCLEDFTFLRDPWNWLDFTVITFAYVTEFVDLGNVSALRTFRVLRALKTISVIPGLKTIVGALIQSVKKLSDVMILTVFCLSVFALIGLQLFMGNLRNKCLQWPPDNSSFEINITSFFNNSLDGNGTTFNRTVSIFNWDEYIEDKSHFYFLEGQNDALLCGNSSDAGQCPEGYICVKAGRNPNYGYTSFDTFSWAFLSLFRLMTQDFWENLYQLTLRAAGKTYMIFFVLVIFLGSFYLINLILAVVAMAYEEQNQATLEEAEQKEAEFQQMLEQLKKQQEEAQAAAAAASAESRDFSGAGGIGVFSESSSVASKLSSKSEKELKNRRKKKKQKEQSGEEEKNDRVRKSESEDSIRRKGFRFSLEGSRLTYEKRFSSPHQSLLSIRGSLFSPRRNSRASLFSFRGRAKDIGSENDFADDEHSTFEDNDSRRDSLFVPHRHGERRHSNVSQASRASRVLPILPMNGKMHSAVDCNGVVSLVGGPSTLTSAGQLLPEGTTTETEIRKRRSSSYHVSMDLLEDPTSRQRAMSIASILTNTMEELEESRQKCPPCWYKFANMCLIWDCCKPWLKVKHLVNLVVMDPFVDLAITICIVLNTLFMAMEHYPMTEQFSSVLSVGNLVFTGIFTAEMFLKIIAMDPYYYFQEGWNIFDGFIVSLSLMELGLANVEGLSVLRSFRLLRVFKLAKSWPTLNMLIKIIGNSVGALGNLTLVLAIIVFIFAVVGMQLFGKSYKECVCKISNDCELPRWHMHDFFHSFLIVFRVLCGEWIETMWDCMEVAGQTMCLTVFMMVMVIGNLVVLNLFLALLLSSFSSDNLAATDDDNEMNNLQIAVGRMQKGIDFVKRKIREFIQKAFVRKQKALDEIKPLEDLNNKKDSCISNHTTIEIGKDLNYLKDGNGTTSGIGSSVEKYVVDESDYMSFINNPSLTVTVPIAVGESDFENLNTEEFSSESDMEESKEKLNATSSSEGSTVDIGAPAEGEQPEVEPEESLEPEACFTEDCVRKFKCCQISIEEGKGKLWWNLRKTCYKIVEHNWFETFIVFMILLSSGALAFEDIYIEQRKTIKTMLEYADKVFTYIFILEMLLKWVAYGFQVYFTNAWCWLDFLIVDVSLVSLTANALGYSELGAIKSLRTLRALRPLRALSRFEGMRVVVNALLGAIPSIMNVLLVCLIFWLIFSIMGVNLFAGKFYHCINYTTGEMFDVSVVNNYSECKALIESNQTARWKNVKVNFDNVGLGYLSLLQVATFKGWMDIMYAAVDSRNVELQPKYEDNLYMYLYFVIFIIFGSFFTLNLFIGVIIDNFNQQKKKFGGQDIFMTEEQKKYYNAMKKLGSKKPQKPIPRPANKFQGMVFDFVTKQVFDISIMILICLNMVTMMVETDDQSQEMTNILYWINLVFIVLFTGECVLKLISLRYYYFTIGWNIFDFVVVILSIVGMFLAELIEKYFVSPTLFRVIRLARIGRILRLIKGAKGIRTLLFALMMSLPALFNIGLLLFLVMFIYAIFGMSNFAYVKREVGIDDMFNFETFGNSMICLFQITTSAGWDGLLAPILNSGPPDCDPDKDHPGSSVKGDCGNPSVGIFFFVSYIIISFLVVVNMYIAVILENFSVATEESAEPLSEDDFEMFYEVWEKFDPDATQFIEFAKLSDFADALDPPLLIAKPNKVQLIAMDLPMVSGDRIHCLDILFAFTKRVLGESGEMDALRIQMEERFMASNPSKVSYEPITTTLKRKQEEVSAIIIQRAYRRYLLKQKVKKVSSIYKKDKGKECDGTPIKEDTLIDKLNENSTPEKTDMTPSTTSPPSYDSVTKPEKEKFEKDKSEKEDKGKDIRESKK
T1 sequence (Q07699 19-218 partner): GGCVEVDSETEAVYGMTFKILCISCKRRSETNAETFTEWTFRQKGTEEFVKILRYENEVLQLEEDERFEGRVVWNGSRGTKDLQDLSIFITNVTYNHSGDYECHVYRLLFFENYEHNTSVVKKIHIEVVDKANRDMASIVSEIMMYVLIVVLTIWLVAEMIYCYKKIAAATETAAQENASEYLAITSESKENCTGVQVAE
T1 sequence (O60939 30-215 partner): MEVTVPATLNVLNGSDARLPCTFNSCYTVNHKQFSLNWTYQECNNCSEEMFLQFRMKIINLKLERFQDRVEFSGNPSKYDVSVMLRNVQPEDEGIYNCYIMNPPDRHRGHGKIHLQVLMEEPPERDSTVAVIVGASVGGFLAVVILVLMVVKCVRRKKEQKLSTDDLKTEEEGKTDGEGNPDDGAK
wild-type human cardiac sodium channel, hNaV 1.5 (Late INa), sequence (Q14524 whole entry): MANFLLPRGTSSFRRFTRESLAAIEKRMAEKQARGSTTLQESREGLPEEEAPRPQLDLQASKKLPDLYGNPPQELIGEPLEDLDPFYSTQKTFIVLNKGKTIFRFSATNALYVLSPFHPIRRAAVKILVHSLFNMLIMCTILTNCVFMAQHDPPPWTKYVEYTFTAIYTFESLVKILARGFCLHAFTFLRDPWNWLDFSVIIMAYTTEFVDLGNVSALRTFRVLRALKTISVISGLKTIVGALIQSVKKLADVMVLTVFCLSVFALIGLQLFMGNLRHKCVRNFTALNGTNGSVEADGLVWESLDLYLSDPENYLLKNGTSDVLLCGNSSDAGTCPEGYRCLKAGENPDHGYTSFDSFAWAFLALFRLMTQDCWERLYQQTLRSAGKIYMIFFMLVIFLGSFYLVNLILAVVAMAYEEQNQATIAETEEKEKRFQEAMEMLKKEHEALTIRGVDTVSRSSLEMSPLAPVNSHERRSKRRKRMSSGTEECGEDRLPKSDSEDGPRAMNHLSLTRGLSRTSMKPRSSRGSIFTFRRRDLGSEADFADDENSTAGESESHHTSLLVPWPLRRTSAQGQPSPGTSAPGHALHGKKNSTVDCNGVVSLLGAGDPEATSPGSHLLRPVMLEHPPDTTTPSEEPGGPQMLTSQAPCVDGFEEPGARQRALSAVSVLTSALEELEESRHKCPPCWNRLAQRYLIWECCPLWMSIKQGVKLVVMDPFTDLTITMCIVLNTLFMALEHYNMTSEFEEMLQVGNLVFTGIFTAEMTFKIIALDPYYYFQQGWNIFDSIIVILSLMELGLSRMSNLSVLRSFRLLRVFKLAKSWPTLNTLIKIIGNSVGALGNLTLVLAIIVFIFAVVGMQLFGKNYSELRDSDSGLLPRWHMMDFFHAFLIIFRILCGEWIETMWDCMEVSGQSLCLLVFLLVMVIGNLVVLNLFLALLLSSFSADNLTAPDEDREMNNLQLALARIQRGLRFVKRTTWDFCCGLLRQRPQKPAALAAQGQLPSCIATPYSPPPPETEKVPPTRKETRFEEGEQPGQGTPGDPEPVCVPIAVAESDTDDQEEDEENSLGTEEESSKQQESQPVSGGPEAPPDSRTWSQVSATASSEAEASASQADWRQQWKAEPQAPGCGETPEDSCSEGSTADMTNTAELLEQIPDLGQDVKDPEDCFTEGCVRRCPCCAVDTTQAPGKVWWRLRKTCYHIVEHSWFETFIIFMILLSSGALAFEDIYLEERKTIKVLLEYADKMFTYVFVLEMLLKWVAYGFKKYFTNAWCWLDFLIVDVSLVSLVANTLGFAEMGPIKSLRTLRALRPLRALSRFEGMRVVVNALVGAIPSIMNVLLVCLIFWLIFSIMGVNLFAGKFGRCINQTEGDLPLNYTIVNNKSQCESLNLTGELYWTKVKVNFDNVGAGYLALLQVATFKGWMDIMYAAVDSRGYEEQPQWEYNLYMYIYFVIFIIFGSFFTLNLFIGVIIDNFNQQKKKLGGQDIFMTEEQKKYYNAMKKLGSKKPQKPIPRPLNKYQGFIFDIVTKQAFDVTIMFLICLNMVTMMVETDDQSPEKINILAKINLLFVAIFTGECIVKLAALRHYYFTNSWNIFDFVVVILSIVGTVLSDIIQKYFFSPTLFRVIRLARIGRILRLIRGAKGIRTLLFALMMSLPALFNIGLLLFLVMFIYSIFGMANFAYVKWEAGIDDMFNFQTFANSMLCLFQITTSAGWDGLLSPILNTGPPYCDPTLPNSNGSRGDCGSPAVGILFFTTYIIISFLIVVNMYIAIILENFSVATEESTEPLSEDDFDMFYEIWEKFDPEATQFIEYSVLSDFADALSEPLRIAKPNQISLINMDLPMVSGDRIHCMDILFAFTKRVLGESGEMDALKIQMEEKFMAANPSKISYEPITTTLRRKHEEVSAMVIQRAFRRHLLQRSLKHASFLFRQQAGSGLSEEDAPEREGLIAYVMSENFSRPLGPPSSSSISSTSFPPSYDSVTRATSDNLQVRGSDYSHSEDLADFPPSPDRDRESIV

SMILES | inhibition at 1 µM [1] [%] | inhibition at 1 µM (hNaV1.2 (SCN2A)) [%] | inhibition at 10 µM (hNaV1.2 (SCN2A)) [%]
COc1cc(OC(F)(F)F)ccc1-c1ccc2c(c1)CN(CCc1ncccn1)C(=O)O2 [Example 18, 6-(2-methoxy-4-(trifluoromethoxy)phenyl)-3-(2-(pyrimidin-2-yl)ethyl)-3,4-dihydro-2H-benzo[e][1,3]oxazin-2-one] | 31.4 | 9.1 | 54.9
CCCOc1cc(C(F)(F)F)ccc1-c1ccc2c(c1)CN(CCc1ncccn1)C(=O)O2 [Example 19, 6-(2-propoxy-4-(trifluoromethyl)phenyl)-3-(2-(pyrimidin-2-yl)ethyl)-3,4-dihydro-2H-benzo[e][1,3]oxazin-2-one] | 68 | 30.6 | 64
O=C1Oc2ccc(-c3ccc(OC(F)(F)F)cc3)cc2CN1Cc1ccccn1 [Example 20, 3-(pyridin-2-ylmethyl)-6-(4-(trifluoromethoxy)phenyl)-3,4-dihydro-2H-benzo[e][1,3]oxazin-2-one] | 53.7 | 30.2 | 69.8
O=C1Oc2ccc(-c3ccc(OC(F)(F)F)cc3F)cc2CN1Cc1ccccn1 [Example 21, 6-(2-fluoro-4-(trifluoromethoxy)phenyl)-3-(pyridin-2-ylmethyl)-3,4-dihydro-2H-benzo[e][1,3]oxazin-2-one] | 44.7 | < 5 | 59.4
COc1cc(OC(F)(F)F)ccc1-c1ccc2c(c1)CN(Cc1ccccn1)C(=O)O2 [Example 22, 6-(2-methoxy-4-(trifluoromethoxy)phenyl)-3-(pyridin-2-ylmethyl)-3,4-dihydro-2H-benzo[e][1,3]oxazin-2-one] | 48.3 | < 5 | 55.6
Cc1cc(OC(F)(F)F)ccc1-c1ccc2c(c1)CN(Cc1ccccn1)C(=O)O2 [Example 23, 6-(2-methyl-4-(trifluoromethoxy)phenyl)-3-(pyridin-2-ylmethyl)-3,4-dihydro-2H-benzo[e][1,3]oxazin-2-one] | 30.5 | < 5 | 56
O=C1Oc2ccc(-c3ccc(C(F)(F)F)cc3)cc2CN1Cc1ccccn1 [Example 24, 3-(pyridin-2-ylmethyl)-6-(4-(trifluoromethyl)phenyl)-3,4-dihydro-2H-benzo[e][1,3]oxazin-2-one] | 55.8 | 32.7 | 71.4
CC(C)Oc1cc(C(F)(F)F)ccc1-c1ccc2c(c1)CN(Cc1ncccn1)C(=O)O2 [Example 25, 6-(2-isopropoxy-4-(trifluoromethyl)phenyl)-3-(pyrimidin-2-ylmethyl)-3,4-dihydro-2H-benzo[e][1,3]oxazin-2-one] | 54 | 29.9 | 72.1
O=C1Oc2ccc(-c3ccc4c(c3)OC(F)(F)O4)cc2CN1Cc1ncccn1 [Example 26, 6-(2,2-difluorobenzo[d][1,3]dioxol-5-yl)-3-(pyrimidin-2-ylmethyl)-3,4-dihydro-2H-benzo[e][1,3]oxazin-2-one] | 35.2 | 28 | 71.1
CCCOc1cc(C(F)(F)F)ccc1-c1ccc2c(c1)CN(Cc1ncccn1)C(=O)O2 [Example 27, 6-(2-propoxy-4-(trifluoromethyl)phenyl)-3-(pyrimidin-2-ylmethyl)-3,4-dihydro-2H-benzo[e][1,3]oxazin-2-one] | 60.1 | 42.2 | 80.6
CCCOc1cc(OC(F)(F)F)ccc1-c1ccc2c(c1)CN(Cc1ncccn1)C(=O)O2 [Example 28, 6-(2-propoxy-4-(trifluoromethoxy)phenyl)-3-(pyrimidin-2-ylmethyl)-3,4-dihydro-2H-benzo[e][1,3]oxazin-2-one] | 45.4 | 17.1 | 58
Cc1ccnc(CN2Cc3cc(-c4ccc(OC(F)(F)F)cc4)ccc3OC2=O)n1 [Example 29, 3-((4-methylpyrimidin-2-yl)methyl)-6-(4-(trifluoromethoxy)phenyl)-3,4-dihydro-2H-benzo[e][1,3]oxazin-2-one] | 61.6 | 36.1 | 81.7
Cc1ccnc(CN2Cc3cc(-c4ccc(C(F)(F)F)cc4)ccc3OC2=O)n1 [Example 30, 3-((4-methylpyrimidin-2-yl)methyl)-6-(4-(trifluoromethyl)phenyl)-3,4-dihydro-2H-benzo[e][1,3]oxazin-2-one] | 54.5 | 47.1 | 79.6
COc1cc(OC(F)(F)F)ccc1-c1ccc2c(c1)CN(Cc1nccc(C)n1)C(=O)O2 [Example 31, 6-(2-methoxy-4-(trifluoromethoxy)phenyl)-3-((4-methylpyrimidin-2-yl)methyl)-3,4-dihydro-2H-benzo[e][1,3]oxazin-2-one] | 34.4 | 13.2 | 45.7
Cc1ccnc(CN2Cc3cc(-c4ccc(OC(F)(F)F)cc4F)ccc3OC2=O)n1 [Example 32, 6-(2-fluoro-4-(trifluoromethoxy)phenyl)-3-((4-methylpyrimidin-2-yl)methyl)-3,4-dihydro-2H-benzo[e][1,3]oxazin-2-one] | 43.4 | 8.1 | 41
Cc1ccnc(CN2Cc3cc(-c4ccc(OC(F)(F)F)cc4C)ccc3OC2=O)n1 [Example 33, 6-(2-methyl-4-(trifluoromethoxy)phenyl)-3-((4-methylpyrimidin-2-yl)methyl)-3,4-dihydro-2H-benzo[e][1,3]oxazin-2-one] | 33 | 17.2 | 55.2
